In article PMC12114840, “Exploring the Anticancer Properties of 1,2,3-Triazole-Substituted Andrographolide Derivatives” (Pharmaceuticals, 2025):

Tests used:
[1] = test system: CCD-18Co cells (non-tumorigenic colon); experiment: Sulforhodamine B (SRB) antiproliferative assay, CCD-18Co; format: cell-based; conditions: Homo sapiens, CCD-18Co non-tumorigenic, 48 h, mean ± SEM of four to six independent experiments
Experimental: (§1) The antiproliferative properties of andrographolide and all prepared derivatives (2–26) were evaluated against a panel of different cancer cell lines, including human pancreatic ductal adenocarcinoma (PANC-1), colorectal adenocarcinoma (HCT116), melanoma (A375), breast adenocarcinoma (MCF-7) and a non-tumorigenic colon (CCD-18Co) cell line using the sulforhodamine B assay.
(§2) Human breast adenocarcinoma MCF-7, pancreatic ductal adenocarcinoma PANC-1, melanoma A375, and non-tumorigenic colon CCD-18Co cell lines were purchased from ATCC (Rockville, MD, USA). Human colorectal adenocarcinoma HCT116 cells were kindly provided by B. Vogelstein (The Johns Hopkins Kimmel Cancer Center, Baltimore, MD, USA). Tumor cells were routinely cultured in RPMI-1640 medium with UltraGlutamine from Biowest (VWR, Carnaxide, Portugal) supplemented with 10% fetal bovine serum (FBS) from Biowest (VWR, Carnaxide, Portugal), except for the PANC-1 cells, which were grown in DMEM (4.5 g/L glucose) with stable L-glutamine and sodium pyruvate and supplemented with 10% FBS. The non-tumorigenic CCD-18Co cells were cultured in EMEM (Lonza, VWR, Carnaxide, Portugal), supplemented with 10% FBS. All cells were incubated at 37 °C in a humidified atmosphere of 5% CO2. Routine mycoplasma testing was performed using the MycoAlert™ PLUS mycoplasma detection kit (Lonza).
(§3) For the evaluation of the compound effect on cell proliferation, human cell lines were seeded in 96-well plates at a density of 5.0 × 10^3 (HCT116, MCF-7, PANC-1, A375, and CCD-18Co) cells per well, for 24 h. Cells were then treated with serial dilutions of the compound (ranging from 0.63 to 30 µM), for an additional 48 h incubation period. The growth inhibitory effects were assessed by SRB assay, as described in [58], and the half-maximal inhibitory concentration (IC50 values) were determined for each cell line using the GraphPad Prism software version 7.0 (La Jolla, CA, USA). Culture medium containing a maximum of 0.05% dimethyl sulfoxide (DMSO) was used as negative control.

[2] = test system: HCT116 cells (colorectal adenocarcinoma); experiment: Sulforhodamine B (SRB) antiproliferative assay, HCT116; format: cell-based; conditions: Homo sapiens, HCT-116, HCT116, 48 h, mean ± SEM of four to six independent experiments
Experimental: as §1, §2, §3

A375 cells (melanoma) = experiment: Sulforhodamine B (SRB) antiproliferative assay, A375; format: cell-based; conditions: Homo sapiens, A-375, A375, 48 h, mean ± SEM of four to six independent experiments
Experimental: as §1, §2, §3

[3] = test system: MCF-7 cells (breast adenocarcinoma); experiment: Sulforhodamine B (SRB) antiproliferative assay, MCF-7; format: cell-based; conditions: Homo sapiens, MCF7, MCF-7, 48 h, mean ± SEM of four to six independent experiments
Experimental: as §1, §2, §3

[4] = test system: PANC-1 cells (pancreatic ductal adenocarcinoma); experiment: Sulforhodamine B (SRB) antiproliferative assay, PANC-1; format: cell-based, human; conditions: Homo sapiens; PANC-1, 48 h, SRB; mean ± SEM of four to six independent experiments
Experimental: as §1, §2, §3

SMILES	IC50 [1] [µM]	IC50 [2] [µM]	IC50 (A375 cells (melanoma)) [µM]	IC50 [3] [µM]	IC50 [4] [µM]
C=C1CC[C@@H]2[C@](C)(COC(C)=O)[C@H](OC(C)=O)CC[C@@]2(C)[C@@H]1C[C@H](C1=CCOC1=O)n1cc(-c2ccccn2)nn1 [Compound 24, (12R)-4-pyridine-1,2,3-triazole-3,19-diacetoxy-14-deoxy-andrographolide]	4.6 ± 1.4	6.7 ± 3.2	1.3 ± 0.3	7 ± 0.2	1.8 ± 0.1
C=C1CC[C@@H]2[C@](C)(COC(C)=O)[C@H](OC(C)=O)CC[C@@]2(C)[C@@H]1C[C@H](C1=CCOC1=O)n1cc(-c2ccsc2)nn1 [Compound 25, (12R)-4-(3-thiophene)-1,2,3-triazole-3,19-diacetoxy-14-deoxy-andrographolide]	8.9 ± 0.2	1.7 ± 0.3	1.8 ± 0.3	6.9 ± 0.1	4.5 ± 2
C=C1CC[C@@H]2[C@](C)(COC(C)=O)[C@H](OC(C)=O)CC[C@@]2(C)[C@@H]1C[C@@H](C1=CCOC1=O)n1cc(-c2ccsc2)nn1 [Compound 26, (12S)-4-(3-thiophene)-1,2,3-triazole-3,19-diacetoxy-14-deoxy-andrographolide]	6.2 ± 1.4	1.3 ± 0.1	1.4 ± 0.1	6.1 ± 0.2	4.3 ± 1.4
COc1cc([C@@H]2c3cc4c(cc3[C@@H](O[C@@H]3O[C@@H]5CO[C@@H](C)O[C@H]5[C@H](O)[C@H]3O)[C@H]3COC(=O)[C@H]23)OCO4)cc(OC)c1O [Etoposide, reference compound]	0.76 ± 0.01	0.65 ± 0.09	0.82 ± 0.07	1.8 ± 0.03	2.8 ± 0.05
